Here are results for 20 molecules from US20230257347A1 (priority 2020, published 2023).

Where two headings read alike, the source gives them in different places.

The target of one experiment is T1, MAOA (Homo sapiens, UniProt P21397).
T1 sequence (P21397 1-527): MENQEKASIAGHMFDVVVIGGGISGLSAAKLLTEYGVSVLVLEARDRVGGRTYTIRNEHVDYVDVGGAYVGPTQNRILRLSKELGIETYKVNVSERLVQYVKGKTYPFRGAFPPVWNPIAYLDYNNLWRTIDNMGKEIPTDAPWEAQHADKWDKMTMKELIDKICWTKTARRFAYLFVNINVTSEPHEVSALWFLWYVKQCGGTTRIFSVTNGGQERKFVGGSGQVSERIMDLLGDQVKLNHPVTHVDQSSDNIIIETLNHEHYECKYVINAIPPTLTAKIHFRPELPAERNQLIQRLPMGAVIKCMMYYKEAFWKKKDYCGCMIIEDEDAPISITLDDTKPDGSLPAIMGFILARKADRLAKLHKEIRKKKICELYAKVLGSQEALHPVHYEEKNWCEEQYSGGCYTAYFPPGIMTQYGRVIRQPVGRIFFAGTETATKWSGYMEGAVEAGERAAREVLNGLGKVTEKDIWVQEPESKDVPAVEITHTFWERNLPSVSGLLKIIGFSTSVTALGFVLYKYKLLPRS
The settings on record: cited from earlier work; for IC50: read-out: MAOA IC50, Table 10, Source (1) Wagmann et al. 2017.

The target in experiment [1] is T2, Monoamine oxidase type A (MAOA) (Homo sapiens, UniProt P21397).
T2 construct: purchased Sigma
T2 sequence (P21397 1-527): T1 sequence (P21397 1-527)
The experiment can be described thus: Enzymatic assay, MAOA (kynuramine substrate). Format: biochemical. As to conditions: for Hill: Hill of MAOA inhibition curve, Original data; for MAOA inhibition (MAOI or not, in words): original data.

In another experiment the test system is neuritogenesis. As to conditions: cited from earlier work.
For experiment [2], the target named is T3, human 5-HT transporter (hSERT) (Homo sapiens, UniProt P31645).
T3 construct: expressed in transfected cells; host or cells: CHO
T3 sequence (P31645 whole entry): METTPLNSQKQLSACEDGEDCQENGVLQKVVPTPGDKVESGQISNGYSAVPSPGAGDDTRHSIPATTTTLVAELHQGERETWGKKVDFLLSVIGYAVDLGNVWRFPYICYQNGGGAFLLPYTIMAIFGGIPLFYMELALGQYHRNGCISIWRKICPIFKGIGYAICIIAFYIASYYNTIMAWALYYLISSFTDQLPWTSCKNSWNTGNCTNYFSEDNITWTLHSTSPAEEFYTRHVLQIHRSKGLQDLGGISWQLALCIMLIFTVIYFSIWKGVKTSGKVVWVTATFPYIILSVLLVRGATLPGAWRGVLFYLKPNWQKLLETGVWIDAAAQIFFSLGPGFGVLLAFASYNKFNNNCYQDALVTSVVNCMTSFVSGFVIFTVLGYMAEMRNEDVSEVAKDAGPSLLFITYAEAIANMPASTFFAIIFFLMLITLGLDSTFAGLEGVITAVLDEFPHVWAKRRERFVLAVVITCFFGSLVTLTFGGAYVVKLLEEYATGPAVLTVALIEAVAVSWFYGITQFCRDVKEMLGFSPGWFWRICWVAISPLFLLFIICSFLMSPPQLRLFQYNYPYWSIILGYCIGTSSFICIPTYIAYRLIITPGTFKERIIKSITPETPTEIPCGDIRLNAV
The experiment can be described thus: hSERT antagonist radioligand assay ([3H]imipramine), CHO cells. Format: binding. The source says: Interactions with these transporters were therefore separately measured using two additional types of assays: an antagonist radioligand assay of inhibition of the human 5-HT transporter (hSERT) expressed in CHO cells (Tatsumi, M. et al. (1999), Eur. J. Pharmacol., 368: 277-283) and an assay measuring release of [^3H] […] While the former is sensitive to classic reuptake inhibition, the latter can detect the effects of substrates, which also induce release. Specific assay steps and reference compounds are given below for each assay type.
Three tryptamine derivatives were evaluated for inhibiting the human 5-HT transporter (hSERT) as expressed in CHO cells using an antagonist radioligand assay (Tatsumi, M. et al. 1999, Eur. J. Pharmacol., 368: 277-283). […] Test compounds were assayed in two trials at 3.0E-10, 3.0E-9, 3.0E-8, 3.0E-7, 3.0E-6, and 3.0E-5 M.

For another experiment, the target named is T4, human DAT (Homo sapiens, UniProt Q01959).
T4 construct: expressed in transfected cells
T4 sequence (Q01959 whole entry): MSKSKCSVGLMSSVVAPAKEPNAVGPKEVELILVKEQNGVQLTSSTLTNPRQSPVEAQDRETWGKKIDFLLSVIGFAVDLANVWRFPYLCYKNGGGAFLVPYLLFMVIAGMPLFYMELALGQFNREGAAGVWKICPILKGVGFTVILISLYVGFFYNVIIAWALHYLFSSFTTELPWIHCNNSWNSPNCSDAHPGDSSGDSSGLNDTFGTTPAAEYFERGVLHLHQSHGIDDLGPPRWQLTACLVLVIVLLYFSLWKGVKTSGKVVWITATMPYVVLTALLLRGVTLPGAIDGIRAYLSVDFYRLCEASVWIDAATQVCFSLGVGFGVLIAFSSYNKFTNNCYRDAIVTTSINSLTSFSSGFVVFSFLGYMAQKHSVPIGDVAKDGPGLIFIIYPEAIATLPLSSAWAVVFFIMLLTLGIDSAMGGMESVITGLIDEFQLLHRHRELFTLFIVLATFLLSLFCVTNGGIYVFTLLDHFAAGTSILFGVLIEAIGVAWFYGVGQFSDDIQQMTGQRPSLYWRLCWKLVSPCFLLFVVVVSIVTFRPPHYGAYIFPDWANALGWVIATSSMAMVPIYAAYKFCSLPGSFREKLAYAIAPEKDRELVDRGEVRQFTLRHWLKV
Put plainly: hDAT release of [3H]dopamine, CHO cells. Format: cell-based. The settings on record: for DAT/SERT ratio: (DAT EC50)^−1/(SERT EC50)^−1, larger numbers indicate higher DAT selectivity.

The target of another experiment is T5, human SERT (Homo sapiens, UniProt P31645).
T5 construct: expressed in transfected cells
T5 sequence (P31645 whole entry): as the sequence (P31645 whole entry) above
Put plainly: hSERT release of [3H]serotonin, CHO cells. Format: cell-based.

Experiment [3] addresses T6, Nicotinic acetylcholine Receptor α4 β2 (nAChR(a4/b2)) (Homo sapiens, UniProt P17787+P43681).
T6 construct: expressed in transfected cells
Put plainly: cell-based. The settings on record: nAChR(a4/b2), Ion Channel, blocker; read-out: IC50 (μM) Antag./Blocker/Inhibitor.

The target in experiment [4] is Gamma-aminobutyric acid Receptor A (GABAA) (Homo sapiens, UniProt P14867+P47870). Format: cell-based. The settings on record: Ion Channel, blocker, read-out: IC50 (μM) Antag./Blocker/Inhibitor.
Gamma-aminobutyric acid Receptor A (GABAA), sequence (P14867 28-456): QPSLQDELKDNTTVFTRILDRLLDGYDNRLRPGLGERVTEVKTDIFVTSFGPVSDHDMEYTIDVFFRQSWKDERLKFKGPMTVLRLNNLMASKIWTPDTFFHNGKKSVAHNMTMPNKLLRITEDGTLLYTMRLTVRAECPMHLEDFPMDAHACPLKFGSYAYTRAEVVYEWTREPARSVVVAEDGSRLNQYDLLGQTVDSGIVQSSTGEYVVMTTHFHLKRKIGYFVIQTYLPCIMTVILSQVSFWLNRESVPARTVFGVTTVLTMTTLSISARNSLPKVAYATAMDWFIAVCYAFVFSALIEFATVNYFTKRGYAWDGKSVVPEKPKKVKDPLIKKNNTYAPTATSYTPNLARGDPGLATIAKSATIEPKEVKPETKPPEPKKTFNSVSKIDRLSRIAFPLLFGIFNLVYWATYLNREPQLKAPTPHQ
Gamma-aminobutyric acid Receptor A (GABAA), sequence (P47870 26-512): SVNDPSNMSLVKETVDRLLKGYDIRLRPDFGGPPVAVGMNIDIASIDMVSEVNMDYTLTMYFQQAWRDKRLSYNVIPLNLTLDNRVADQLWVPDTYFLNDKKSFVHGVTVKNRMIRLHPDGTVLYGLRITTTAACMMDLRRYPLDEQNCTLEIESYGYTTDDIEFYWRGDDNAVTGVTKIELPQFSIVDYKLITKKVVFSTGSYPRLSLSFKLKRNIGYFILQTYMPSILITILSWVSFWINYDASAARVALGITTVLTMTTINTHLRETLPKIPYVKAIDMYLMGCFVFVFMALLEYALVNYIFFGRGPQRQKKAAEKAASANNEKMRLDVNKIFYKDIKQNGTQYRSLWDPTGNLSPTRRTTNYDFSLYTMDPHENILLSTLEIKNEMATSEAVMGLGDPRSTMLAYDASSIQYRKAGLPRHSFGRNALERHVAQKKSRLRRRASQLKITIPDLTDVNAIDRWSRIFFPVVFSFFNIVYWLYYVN
Gamma-aminobutyric acid Receptor A (GABAA), sequence (P18507 40-475 partner): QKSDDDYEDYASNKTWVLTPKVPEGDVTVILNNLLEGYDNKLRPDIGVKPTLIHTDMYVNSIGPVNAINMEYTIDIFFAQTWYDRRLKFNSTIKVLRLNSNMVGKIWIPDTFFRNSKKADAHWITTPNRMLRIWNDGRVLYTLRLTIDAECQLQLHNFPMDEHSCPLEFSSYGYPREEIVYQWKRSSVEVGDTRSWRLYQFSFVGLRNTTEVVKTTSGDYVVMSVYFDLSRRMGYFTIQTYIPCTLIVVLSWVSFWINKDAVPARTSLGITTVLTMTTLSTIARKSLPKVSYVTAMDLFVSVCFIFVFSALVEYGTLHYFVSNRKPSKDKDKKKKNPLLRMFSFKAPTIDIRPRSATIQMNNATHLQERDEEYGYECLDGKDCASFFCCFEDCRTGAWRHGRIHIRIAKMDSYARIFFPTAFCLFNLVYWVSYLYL

T6 sequence (P43681 29-627 limits assumed): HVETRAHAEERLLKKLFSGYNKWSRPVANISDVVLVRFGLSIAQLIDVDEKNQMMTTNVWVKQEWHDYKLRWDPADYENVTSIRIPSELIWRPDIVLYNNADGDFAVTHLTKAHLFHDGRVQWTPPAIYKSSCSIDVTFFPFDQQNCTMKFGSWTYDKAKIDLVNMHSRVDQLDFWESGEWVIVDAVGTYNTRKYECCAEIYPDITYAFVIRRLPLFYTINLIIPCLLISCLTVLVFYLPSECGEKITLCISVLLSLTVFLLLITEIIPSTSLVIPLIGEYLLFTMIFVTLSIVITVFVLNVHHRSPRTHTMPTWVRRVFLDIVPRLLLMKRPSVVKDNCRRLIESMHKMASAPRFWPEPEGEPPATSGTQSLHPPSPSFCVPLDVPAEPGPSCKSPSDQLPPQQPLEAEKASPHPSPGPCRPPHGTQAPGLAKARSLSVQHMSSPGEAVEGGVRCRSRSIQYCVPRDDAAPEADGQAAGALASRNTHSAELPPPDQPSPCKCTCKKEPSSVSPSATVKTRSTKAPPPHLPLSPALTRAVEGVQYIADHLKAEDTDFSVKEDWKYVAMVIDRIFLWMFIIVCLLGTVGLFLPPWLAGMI
T6 sequence (P17787 26-502): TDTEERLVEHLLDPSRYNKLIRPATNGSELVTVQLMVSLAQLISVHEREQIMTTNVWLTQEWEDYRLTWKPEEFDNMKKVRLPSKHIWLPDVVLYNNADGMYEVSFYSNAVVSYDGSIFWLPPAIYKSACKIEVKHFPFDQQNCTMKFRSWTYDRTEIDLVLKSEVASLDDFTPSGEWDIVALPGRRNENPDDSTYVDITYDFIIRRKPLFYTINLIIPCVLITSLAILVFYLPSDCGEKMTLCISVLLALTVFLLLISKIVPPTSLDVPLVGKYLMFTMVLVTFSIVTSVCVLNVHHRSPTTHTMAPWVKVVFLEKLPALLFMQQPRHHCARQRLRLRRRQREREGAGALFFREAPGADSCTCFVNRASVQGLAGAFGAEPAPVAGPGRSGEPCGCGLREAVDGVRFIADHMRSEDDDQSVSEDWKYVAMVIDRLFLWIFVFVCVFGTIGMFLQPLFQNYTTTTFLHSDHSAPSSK

As for `CC(N)Cc1c[nH]c2ccccc12` (stereo not drawn) [1-(1H-indol-3-yl)propan-2-amine], the IC50 on MAOA was 380 nM.
On to `CC(N)Cc1c[nH]c2ccc(Br)cc12` (stereo not drawn) [1-(5-bromo-1H-indol-3-yl)propan-2-amine], for which the IC50 at MAOA was 1300 nM.
Take `CC(N)Cc1c[nH]c2ccc(Cl)cc12` (stereo not drawn) [1-(5-chloro-1H-indol-3-yl) propan-2-amine]: the IC50 at MAOA is 250 nM.
For the molecule `CC(N)Cc1c[nH]c2ccc(F)cc12` (stereo not drawn) [1-(5-fluoro-1H-indol-3-yl) propan-2-amine], at MAOA (previously reported data), the “MAOA inhibition (MAOI or not, in words)” value is on record as “are MAOIs”. Moreover, at MAOA, the IC50 was 450 nM.
On to `CNCC(=O)c1c[nH]c2ccc(F)cc12` [1-(5-fluoro-1H-indol-3-yl)-2-(methylamino)ethan-1-one, reference compound], for which, in experiment [1], the Hill was determined as 1.02 and the “MAOA inhibition (MAOI or not, in words)” value is “is also an MAOI”. Further, the IC50 in experiment [1] (Table 10, Source: Original data, read-out: MAOA IC50) was 3430 nM.
In experiment [1], `CCC(N)Cc1c[nH]c2ccc(F)cc12` (stereo not drawn) [1-(5-fluoro-1H-indol-3-yl)butan-2-amine, reference compound] displayed an IC50 of 2480 nM and a Hill of 0.89.
For the molecule `Cc1[nH]c2ccc(F)cc2c1CC(C)N` (stereo not drawn) [1-(5-fluoro-2-methyl-1H-indol-3-yl)propan-2-amine], the IC50 on MAOA was 4100 nM.
Consider `Cc1ccc2[nH]cc(CC(C)N)c2c1` (stereo not drawn) [1-(5-methyl-1H-indol-3-yl) propan-2-amine], for which, at MAOA, the IC50 is 1500 nM.
As to `CC(N)Cc1c[nH]c2cc(F)ccc12` (stereo not drawn) [1-(6-fluoro-1H-indol-3-yl) propan-2-amine], the IC50 on MAOA is 1800 nM.
`CCC(N)C(=O)c1c[nH]c2ccc(F)cc12` (stereo not drawn) [2-amino-1-(5-fluoro-1H-indol-3-yl) butan-1-one] had an IC50 in experiment [1] of more than 30000 nM.
Turning to `CNC(C)Cc1ccc2c(c1)OCO2` (stereo not drawn) [MDMA, 3,4-methylenedioxymethamphetamine], in the experiment on neuritogenesis (Ly et al. Cell reports 2018, Figure S3, read-out: EC50 for promoting neuritogenesis), the EC50 was 7.41 nM. Further, the “Emax for promoting neuritogenesis” value with neuritogenesis (relative to ketamine, Ly et al. 2018) is on record as “approximately twice that of ketamine”.
On to `CNC(C)Cc1c[nH]c2ccc(F)cc12` (stereo not drawn) [[1-(5-fluoro-1H-indol-3-yl)propan-2-yl](methyl)amine, reference compound], for which, in experiment [1], the IC50 came out at 450 nM; the Hill was found to be 1.01; the “MAOA inhibition (MAOI or not, in words)” value is listed as “are MAOIs”.
On to `CNC(C)C(=O)c1c[nH]c2ccc(F)cc12` (stereo not drawn) [drawing 183], for which, in experiment [2], the IC50 amounted to 3500 nM and affinity was put at a Ki of 1600 nM.
As for `CNC(C)C(=O)c1c[nH]c2ccc(Br)cc12` (stereo not drawn) [drawing 184], in experiment [2], the IC50 worked out at 5600 nM and the affinity, expressed as Ki, was 2600 nM.
Take `CNC(C)C(=O)c1c[nH]c2ccc(Cl)cc12` (stereo not drawn) [drawing 185]: in experiment [2], the IC50 was 2500 nM and the affinity corresponds to a Ki of 1100 nM.
In the case of `CNC(C)C(=O)c1c[nH]c2ccc(F)cc12` (stereo not drawn) [drawing 186], on human DAT, the EC50 stood at 620 nM and the DAT/SERT ratio turned out to be 0.31. For the same molecule, a half-maximal effect at human SERT (EC50) was put at 190 nM.
Regarding `CNC(C)C(=O)c1c[nH]c2ccc(Br)cc12` (stereo not drawn) [drawing 187], the results for the EC50 at human DAT and on human SERT were 2100 nM and 295 nM, respectively. Besides, the DAT/SERT ratio on human DAT was determined as 0.14.
On to `CNC(C)C(=O)c1c[nH]c2ccc(Cl)cc12` (stereo not drawn) [drawing 188], for which the EC50 on human DAT was 865 nM; on human SERT, 200 nM. In addition, the DAT/SERT ratio on human DAT is 0.23.
Take “Dihydro-AY-erythroidine [reference compound]”: the IC50 in experiment [3] came out at 0.682 µM.
As for Picrotoxin, the IC50 in experiment [4] came out at 2.78 µM.
